≈ marks a conversion by molar mass, not a printed value.
Tests used:
[1] = biological target: human histamine 4 receptor (hH4R) (Homo sapiens (Human), UniProt Q9H3N8); assay: Binding affinity of human histamine 4 receptor (hH4R), [3H] labeled histamine displacement; details: hH4R-overexpressed cell membrane, [3H] histamine
Protocol: 20 μL of the prepared compound solution was transferred to each well of a 96-well plate, and then 20 μL of 100 μM histamine diluted with analysis buffer solution and 1% DMSO were transferred to each well to calculate non-specific binding and total binding degree. 25 μg of human histamine 4 receptor-overexpressed cell membrane (PerkinElmer) was diluted into 160 μL of analysis buffer solution and that was transferred to each well. [^3H] labeled histamine (PerkinElmer) was diluted into 1 μM concentration, 20 μL was allocated in each well, and then it was kept in a 27° C. incubator for 30 minutes. After the reaction, 200 μL of the mixture was transferred to a glass fiber plate in which 0.5% polyethylene amine was presoaked, and then non-binding [^3H] labeled histamine was removed in vacuum. After 4 times washing with 200 μL of washing buffer solution (50 mM tris-HCl, pH 7.4), the plate was dried in a 37° C. oven for 18 hours. 100 μL of betascint cocktail solution was added to each well, and after 1 hour CPM (count per minute) value of [^3H] labeled histamine was measured by using Wallac beta-counter TriLux.

[2] = Solubility in artificial gastrointestinal tract solution; type: physicochemical; details: thermodynamic from solid; for solubility at 1 h: fassgf or other biorelevant, first solution pH 1.2, 2 mg/mL sample, 37° C. 1 hour; for solubility at 2 h: fassif, second solution pH 6.5, 2 mg/mL sample, 37° C. 2 hours
Protocol: 2.0 g of sodium chloride was added in 7.0 mL of 37% of hydrochloric acid and water to make the total volume of 1 L. The pH was adjusted to exactly 1.2 with 1N sodium hydroxide or 1N hydrochloric acid. A small amount (20 mL) of this solution was taken and added in 25 μL of triton X-100 to make the total volume of 25 mL.
0.348 g sodium hydroxide, 3.438 g NaH2PO4, 6.186 g sodium chloride and water were added to make the total volume of 1 L. The pH was adjusted to exactly 6.5 with 1N sodium hydroxide or 1N hydrochloric acid. A small amount (20 mL) of this solution was taken and 41.25 mg of sodium taurocholate hydrate and 25 μL of 750 mM lecithin dissolved in ethanol was added to make the total volume of 25 mL.
The heated test sample solutions were filtered to remove undissolved compounds therein. Finally, 100 μL of the completely compound-dissolved solution was sampled and 100 μL of CH3CN was added thereto to make the test sample solution. For each analysis of the test sample solution, the solubility was measured by using liquid chromatography.

[3] = Metabolic stability in mouse microsome; details: mouse microsome 1 mg/mL, 5 μM compound, 1 mM NADPH
[4] = Metabolic stability in human microsome; details: human microsome 1 mg/mL, 5 μM compound, 1 mM NADPH
[5] = biological target: human histamine 3 receptor (hH3R) (Homo sapiens (Human), UniProt Q9Y5N1); assay: Binding affinity of human histamine 3 receptor (hH3R), [3H] labeled N-α-methylhistamine displacement; details: hH3R-overexpressed cell membrane, [3H] N-α-methylhistamine
How it was run: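 Membranes from cells overexpressing hH3R (15 μg) were incubated with compound and [3H]N-α-methylhistamine (20 μM stock) in 50 mM Tris-HCl pH 7.4, 5 mM MgCl2 for 30 min at 27 °C. Bound radioligand was counted by scintillation after filtration; 200 μM (R)(−)-α-methylhistamine stock defined non-specific binding; IC50 derived.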

[6] = Mouse pharmacokinetics (oral); type: in vivo; details: plasma, 50 mg/kg, ICR mouse, 5 mg/mL solution at 10 mL/kg; for AUC(0-inf): read-out: Mouse pharmacokinetics AUCinf; for half-life: read-out: Mouse pharmacokinetics t1/2 (converted)
Protocol: The weight of each ICR mouse and SD rat was properly 20˜30 g and 200˜300 g, and dosage of the compound of the present invention was 10 mL/kg for mice and 5 mL/kg for rats, and administered orally using Zonde. Blood collection was performed at 0.25, 0.5, 1, 2, 4, 6, 8 and 24 hours by orbital venous blood collection using a capillary tube coated with an anticoagulant, and then plasma was isolated using a centrifuge and kept in a freezer.
Plasma collected from animals and standard concentration material were pretreated using solid-phase extraction, and concentration of the compound of the invention was determined using a liquid chromatography mass spectrometer (Agilent HPLC, API-3000).
According to the resulting concentration value, the pharmacokinetics parameter was found using WinNonlin (Version 6.2) and half-life (t1/2), maximum blood concentration (Cmax) and infinite area under the curve (AUCinf) are shown in Tables 6 and 7 below.

[7] = biological target: human serotonin 3 receptor (human 5-HT3 receptor) (Homo sapiens (Human), UniProt P46098); assay: Binding affinity of human serotonin 3 receptor (performed at Cerep)
Protocol: The binding assays of the human serotonin 3 receptor for present invention were performed at Cerep (Poitiers, France), and the results of analysis are shown in Table 3.

[8] = artificial gastrointestinal tract solution

human histamine 3 receptor (hH3R), sequence (Q9Y5N1 whole entry): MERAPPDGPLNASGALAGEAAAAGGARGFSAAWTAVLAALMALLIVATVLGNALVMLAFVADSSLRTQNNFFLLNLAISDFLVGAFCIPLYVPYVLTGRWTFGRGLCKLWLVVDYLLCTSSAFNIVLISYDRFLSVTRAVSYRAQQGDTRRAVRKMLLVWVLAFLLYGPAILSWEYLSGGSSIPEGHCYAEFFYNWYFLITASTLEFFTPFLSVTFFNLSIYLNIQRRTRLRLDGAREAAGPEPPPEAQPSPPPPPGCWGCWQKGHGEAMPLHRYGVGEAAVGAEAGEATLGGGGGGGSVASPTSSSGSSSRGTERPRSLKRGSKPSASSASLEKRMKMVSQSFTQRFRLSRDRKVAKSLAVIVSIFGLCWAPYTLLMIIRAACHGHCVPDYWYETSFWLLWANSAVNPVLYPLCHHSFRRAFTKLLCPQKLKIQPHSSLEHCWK
human serotonin 3 receptor (human 5-HT3 receptor), sequence (P46098 24-478): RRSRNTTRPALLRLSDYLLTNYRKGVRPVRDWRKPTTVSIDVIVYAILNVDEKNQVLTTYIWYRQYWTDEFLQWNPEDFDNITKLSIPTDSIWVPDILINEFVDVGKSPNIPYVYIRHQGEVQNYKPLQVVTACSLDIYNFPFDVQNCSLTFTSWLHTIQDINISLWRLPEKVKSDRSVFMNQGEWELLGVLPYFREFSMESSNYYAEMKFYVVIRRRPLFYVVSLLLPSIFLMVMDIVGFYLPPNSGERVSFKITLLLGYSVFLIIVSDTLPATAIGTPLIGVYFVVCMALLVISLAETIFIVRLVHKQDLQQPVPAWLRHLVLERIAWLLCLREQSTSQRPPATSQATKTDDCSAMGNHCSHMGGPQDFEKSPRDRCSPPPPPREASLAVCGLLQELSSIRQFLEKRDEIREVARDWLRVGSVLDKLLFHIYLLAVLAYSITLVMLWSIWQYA

IC50 [1]	solubility at 1 h [2, 8]	solubility at 2 h [2, 8]	Metabolic stability (CLh. int), Mouse [3]	Metabolic stability (CLh. int), Human [4]	IC50 [5]	Cmax [6]	AUC(0-inf) [6]	half-life [6]	solubility at 1 h [2]	solubility at 2 h [2]	inhibition at 10 µM ([7]; read-out: % inhibition degree at 10 μM, human serotonin 3 receptor (h5-HT3R))	IC50 ([7]; read-out: Binding affinity (IC50) of human serotonin 3 receptor (h5-HT3R))	SMILES	IC50 ([1]; hydrochloride)
67 nM	1930 µg/mL (≈ 5.54 mM)	679 µg/mL (≈ 1.95 mM)	14420 µL/min/mg	3730 µL/min/mg	–	–	–	–	–	–	–	–	CN1CCN(c2nc3ncc(Br)cc3n3cnnc23)CC1 [Compound 12, 8-Bromo-4-(4-methylpiperazin-1-yl)pyrido[2,3-e][1,2,4]triazolo[4,3-a]pyrazine]	–
65 nM	1930 µg/mL (≈ 5.78 mM)	758 µg/mL (≈ 2.27 mM)	10420 µL/min/mg	4080 µL/min/mg	> 100000 nM	8270 ng/mL	15900 ng·h/mL	1.18 h	–	–	–	–	Brc1cnc2nc(N3CCNCC3)c3nncn3c2c1 [Compound 16, 8-Bromo-4-(piperazin-1-yl)pyrido[2,3-e][1,2,4]triazolo[4,3-a]pyrazine]	–
760 nM	1980 µg/mL (≈ 6.5 mM)	1700 µg/mL (≈ 5.58 mM)	26160 µL/min/mg	960 µL/min/mg	> 100000 nM	–	–	–	–	–	–	–	C[C@H]1CN(c2nc3ncc(Cl)cc3n3cnnc23)CCN1 [Compound 19, (S)-8-chloro-4-(3-methylpiperazin-1-yl)pyrido[2,3-e][1,2,4]triazolo[4,3-a]pyrazine]	–
380 nM	2070 µg/mL (≈ 6.51 mM)	1640 µg/mL (≈ 5.18 mM)	7570 µL/min/mg	1620 µL/min/mg	> 100000 nM	–	–	–	–	–	–	–	C[C@H]1CN(c2nc3ncc(Cl)cc3n3cnnc23)CCN1C [Compound 20, (S)-8-chloro-4-(3,4-dimethylpiperazin-1-yl)pyrido[2,3-e][1,2,4]triazolo[4,3-a]pyrazine]	–
73 nM	1350 µg/mL (≈ 4.43 mM)	1150 µg/mL (≈ 3.79 mM)	8390 µL/min/mg	1030 µL/min/mg	> 100000 nM	10100 ng/mL	74900 ng·h/mL	5.39 h	–	–	–	–	Cc1nc2c3cc(Cl)cnc3nc(N3CCNCC3)n2n1 [Compound 32, 9-Chloro-2-methyl-5-(piperazin-1-yl)pyrido[3,2-e][1,2,4]triazolo[1,5-c]pyrimidine]	–
190 nM	1990 µg/mL (≈ 7.38 mM)	1870 µg/mL (≈ 6.95 mM)	9080 µL/min/mg	1900 µL/min/mg	> 100000 nM	–	–	–	–	–	–	–	CNC1CN(c2nc3ncc(C)cc3n3cnnc23)C1 [Compound 50, N-Methyl-1-(8-methylpyrido[2,3-e][1,2,4]triazolo[4,3-a]pyrazin-4-yl)azetidin-3-amine]	–
220 nM	–	–	2050 µL/min/mg	1320 µL/min/mg	> 100000 nM	–	–	–	1670 µg/mL (≈ 5.18 mM)	1460 µg/mL (≈ 4.53 mM)	–	–	CNC1CN(c2nc3ncc(C(F)(F)F)cc3n3cnnc23)C1 [Compound 52, N-Methyl-1-(8-(trifluoromethyl)pyrido[2,3-e][1,2,4]triazolo[4,3-a]pyrazin-4-yl)azetidin-3-amine]	–
260 nM	1820 µg/mL (≈ 6.31 mM)	1580 µg/mL (≈ 5.46 mM)	11770 µL/min/mg	2870 µL/min/mg	> 100000 nM	–	–	–	–	–	–	–	CNC1CN(c2nc3ncc(Cl)cc3n3ccnc23)C1 [Compound 88, 1-(8-Chloroimidazo[1,2-a]pyrido[2,3-e]pyrazin-4-yl)-N-methylazetidin-3-amine]	–
65 nM	1970 µg/mL (≈ 6.78 mM)	1310 µg/mL (≈ 4.49 mM)	9470 µL/min/mg	4480 µL/min/mg	> 100000 nM	10800 ng/mL	121000 ng·h/mL	15.6 h	–	–	18%	> 10000 nM	CNC1CN(c2nc3ncc(Cl)cc3n3nnnc23)C1 [Compound 93, 1-(8-Chloropyrido[2,3-e]tetrazolo[1,5-a]pyrazin-4-yl)-N-methylazetidin-3-amine]	–
620 nM	1420 µg/mL (≈ 4.22 mM)	1570 µg/mL (≈ 4.68 mM)	8150 µL/min/mg	5160 µL/min/mg	> 100000 nM	–	–	–	–	–	–	–	CNC1CN(C2=Nc3ncc(Br)cc3N3CCN=C23)C1 [Compound 107, 1-(8-bromo-1,2-dihydroimidazo[1,2-a]pyrido[2,3-e]pyrazin-4-yl)-N-methylazetidin-3-amine]	–
160 nM	1870 µg/mL (≈ 5.62 mM)	708 µg/mL (≈ 2.13 mM)	1780 µL/min/mg	3880 µL/min/mg	> 100000 nM	–	–	–	–	–	–	–	CNC1CN(c2nc3ncc(Br)cc3c3ccnn23)C1 [Compound 110, 1-(9-bromopyrazolo[1,5-c]pyrido[3,2-e]pyrimidin-5-yl)-N-methylazetidin-3-amine]	–
240 nM	1900 µg/mL (≈ 6.33 mM)	1070 µg/mL (≈ 3.55 mM)	5230 µL/min/mg	4200 µL/min/mg	> 100000 nM	–	–	–	–	–	–	–	CNC1CN(c2nc3ncc([N+](=O)[O-])cc3n3cnnc23)C1 [Compound 111, N-methyl-1-(8-nitropyrido[2,3-e][1,2,4]triazolo[4,3-a]pyrazin-4-yl)azetidin-3-amine]	–

SMILES	IC50 [1]	solubility at 1 h [2, 8]	solubility at 2 h [2, 8]	Metabolic stability (CLh. int), Mouse [3]	Metabolic stability (CLh. int), Human [4]	IC50 [5]	Cmax [6]	AUC(0-inf) [6]	half-life [6]	solubility at 1 h [2]	solubility at 2 h [2]	inhibition at 10 µM ([7]; read-out: % inhibition degree at 10 μM, human serotonin 3 receptor (h5-HT3R))	IC50 ([7]; read-out: Binding affinity (IC50) of human serotonin 3 receptor (h5-HT3R))	IC50 ([1]; hydrochloride)
CNC1CN(c2nc3ncc(Br)cc3n3cnnc23)C1.Cl [Compound 68, 1-(8-Bromopyrido[2,3-e][1,2,4]triazolo[4,3-a]pyrazin-4-yl)-N-methylazetidin-3-amine hydrochloride]	–	1820 µg/mL	1760 µg/mL	3930 µL/min/mg	300 µL/min/mg	> 100000 nM	–	–	–	–	–	–	–	130 nM
CNC1CN(c2nc3ncc(Br)cc3n3nnnc23)C1.Cl [Compound 69, 1-(8-Bromopyrido[2,3-e]tetrazolo[1,5-a]pyrazin-4-yl)-N-methylazetidin-3-amine hydrochloride]	35 nM	1810 µg/mL	1920 µg/mL	14040 µL/min/mg	5690 µL/min/mg	> 100000 nM	–	–	–	–	–	–	–	–

From patent US9586959B2, “Substituted tricyclic heterocycles as histamine 4 receptor inhibitors” (C&C RESEARCH LABORATORIES, priority 2011, dated 2017)
